Assay: molar heat capacity at constant pressure
Conditions: 101.33 kPa, Liquid, Large sample (1 g) DSC

CCCCCCOCCOCCO [2-(2-hexyloxyethoxy)ethanol]
Conditions	molar heat capacity at constant pressure [J/K/mol]
275.15 K	411.2
277.15 K	412
279.15 K	412.8
281.15 K	413.6
283.15 K	414.4
285.15 K	415.3
287.15 K	416.1
289.15 K	417
291.15 K	417.9
293.15 K	418.7
295.15 K	419.6
297.15 K	420.5
298.15 K	421
299.15 K	421.4
301.15 K	422.3
303.15 K	423.2
305.15 K	424.2
307.15 K	425.1
309.15 K	426
311.15 K	427
313.15 K	428
315.15 K	428.9
317.15 K	429.9
319.15 K	430.9
321.15 K	431.9
323.15 K	432.9
325.15 K	433.9
327.15 K	434.9
329.15 K	436
331.15 K	437
333.15 K	438
335.15 K	439.1
337.15 K	440.2
339.15 K	441.2

COCCOCCO [2-(2-methoxyethoxy)ethanol]
Conditions	molar heat capacity at constant pressure [J/K/mol]
275.15 K	261.9
277.15 K	262.3
279.15 K	262.7
281.15 K	263.2
283.15 K	263.6
285.15 K	264.1
287.15 K	264.6
289.15 K	265.1
291.15 K	265.6
293.15 K	266.1
295.15 K	266.6
297.15 K	267.1
298.15 K	267.4
299.15 K	267.6
301.15 K	268.2
303.15 K	268.7
305.15 K	269.3
307.15 K	269.8
309.15 K	270.4
311.15 K	271
313.15 K	271.6
315.15 K	272.2
317.15 K	272.8
319.15 K	273.4
321.15 K	274
323.15 K	274.7
325.15 K	275.3
327.15 K	276
329.15 K	276.6
331.15 K	277.3
333.15 K	278
335.15 K	278.7
337.15 K	279.4
339.15 K	280.1

CCCOCCOCCO [2-(2-propoxyethoxy)ethanol]
Conditions	molar heat capacity at constant pressure [J/K/mol]
275.15 K	321.3
277.15 K	322
279.15 K	322.6
281.15 K	323.3
283.15 K	324
285.15 K	324.7
287.15 K	325.4
289.15 K	326.1
291.15 K	326.8
293.15 K	327.5
295.15 K	328.2
297.15 K	329
298.15 K	329.4
299.15 K	329.7
301.15 K	330.5
303.15 K	331.3
305.15 K	332
307.15 K	332.8
309.15 K	333.6
311.15 K	334.4
313.15 K	335.2
315.15 K	336
317.15 K	336.9
319.15 K	337.7
321.15 K	338.5
323.15 K	339.4
325.15 K	340.3
327.15 K	341.1
329.15 K	342
331.15 K	342.9
333.15 K	343.8
335.15 K	344.7
337.15 K	345.6
339.15 K	346.5

COCCOCCOCCO [2-[2-(2-methoxyethoxy)ethoxy]ethanol]
Conditions	molar heat capacity at constant pressure [J/K/mol]
275.15 K	352.2
277.15 K	352.6
279.15 K	352.9
281.15 K	353.2
283.15 K	353.6
285.15 K	353.9
287.15 K	354.3
289.15 K	354.7
291.15 K	355.1
293.15 K	355.5
295.15 K	355.9
297.15 K	356.3
298.15 K	356.6
299.15 K	356.8
301.15 K	357.2
303.15 K	357.7
305.15 K	358.1
307.15 K	358.6
309.15 K	359.1
311.15 K	359.6
313.15 K	360.1
315.15 K	360.6
317.15 K	361.2
319.15 K	361.7
321.15 K	362.2
323.15 K	362.8
325.15 K	363.4
327.15 K	364
329.15 K	364.5
331.15 K	365.1
333.15 K	365.8
335.15 K	366.4
337.15 K	367
339.15 K	367.6

CCCCCCCCOCCOCCOCCO [2-[2-[2-(octyloxy)ethoxy]ethoxy]ethanol]
Conditions	molar heat capacity at constant pressure [J/K/mol]
275.15 K	563.7
277.15 K	564.5
279.15 K	565.2
281.15 K	566
283.15 K	566.9
285.15 K	567.7
287.15 K	568.6
289.15 K	569.5
291.15 K	570.4
293.15 K	571.3
295.15 K	572.2
297.15 K	573.2
298.15 K	573.7
299.15 K	574.2
301.15 K	575.2
303.15 K	576.2
305.15 K	577.3
307.15 K	578.4
309.15 K	579.5
311.15 K	580.6
313.15 K	581.7
315.15 K	582.9
317.15 K	584.1
319.15 K	585.3
321.15 K	586.5
323.15 K	587.7
325.15 K	589
327.15 K	590.3
329.15 K	591.6
331.15 K	592.9
333.15 K	594.3
335.15 K	595.6
337.15 K	597
339.15 K	598.4

CCCCOCCO [2-butoxyethan-1-ol]
Conditions	molar heat capacity at constant pressure [J/K/mol]
275.15 K	261.7
277.15 K	262.6
279.15 K	263.6
281.15 K	264.6
283.15 K	265.6
285.15 K	266.6
287.15 K	267.6
289.15 K	268.5
291.15 K	269.5
293.15 K	270.5
295.15 K	271.5
297.15 K	272.5
298.15 K	273
299.15 K	273.5
301.15 K	274.5
303.15 K	275.5
305.15 K	276.5
307.15 K	277.5
309.15 K	278.5
311.15 K	279.5
313.15 K	280.5
315.15 K	281.5
317.15 K	282.5
319.15 K	283.5
321.15 K	284.5
323.15 K	285.5
325.15 K	286.5
327.15 K	287.5
329.15 K	288.5
331.15 K	289.6
333.15 K	290.6
335.15 K	291.6
337.15 K	292.6
339.15 K	293.6

CCOCCO [2-ethoxyethan-1-ol]
Conditions	molar heat capacity at constant pressure [J/K/mol]
275.15 K	203.3
277.15 K	204
279.15 K	204.6
281.15 K	205.3
283.15 K	205.9
285.15 K	206.6
287.15 K	207.3
289.15 K	208
291.15 K	208.6
293.15 K	209.3
295.15 K	210
297.15 K	210.7
298.15 K	211.1
299.15 K	211.4
301.15 K	212.1
303.15 K	212.8
305.15 K	213.6
307.15 K	214.3
309.15 K	215
311.15 K	215.7
313.15 K	216.5
315.15 K	217.2
317.15 K	218
319.15 K	218.7
321.15 K	219.5
323.15 K	220.2
325.15 K	221
327.15 K	221.8
329.15 K	222.6
331.15 K	223.3
333.15 K	224.1
335.15 K	224.9
337.15 K	225.7
339.15 K	226.5

CCCOCCO [2-propoxyethanol]
Conditions	molar heat capacity at constant pressure [J/K/mol]
275.15 K	231.6
277.15 K	232.4
279.15 K	233.3
281.15 K	234.1
283.15 K	235
285.15 K	235.8
287.15 K	236.6
289.15 K	237.5
291.15 K	238.3
293.15 K	239.2
295.15 K	240.1
297.15 K	240.9
298.15 K	241.4
299.15 K	241.8
301.15 K	242.7
303.15 K	243.5
305.15 K	244.4
307.15 K	245.3
309.15 K	246.2
311.15 K	247.1
313.15 K	248
315.15 K	248.9
317.15 K	249.8
319.15 K	250.7
321.15 K	251.6
323.15 K	252.5
325.15 K	253.4
327.15 K	254.3
329.15 K	255.2
331.15 K	256.1
333.15 K	257.1
335.15 K	258
337.15 K	258.9
339.15 K	259.9

COCCOCCOCCOCCO [3,6,9,12-tetraoxatridecanol]
Conditions	molar heat capacity at constant pressure [J/K/mol]
275.15 K	445.4
277.15 K	445.6
279.15 K	445.8
281.15 K	446
283.15 K	446.2
285.15 K	446.5
287.15 K	446.8
289.15 K	447.1
291.15 K	447.4
293.15 K	447.7
295.15 K	448.1
297.15 K	448.4
298.15 K	448.6
299.15 K	448.8
301.15 K	449.2
303.15 K	449.6
305.15 K	450
307.15 K	450.5
309.15 K	451
311.15 K	451.5
313.15 K	452
315.15 K	452.5
317.15 K	453
319.15 K	453.6
321.15 K	454.2
323.15 K	454.8
325.15 K	455.4
327.15 K	456
329.15 K	456.6
331.15 K	457.3
333.15 K	458
335.15 K	458.7
337.15 K	459.4
339.15 K	460.1

CCCCOCCOCCO [3,6-dioxa-1-decanol]
Conditions	molar heat capacity at constant pressure [J/K/mol]
275.15 K	351.2
277.15 K	351.9
279.15 K	352.7
281.15 K	353.4
283.15 K	354.2
285.15 K	354.9
287.15 K	355.7
289.15 K	356.5
291.15 K	357.3
293.15 K	358.1
295.15 K	359
297.15 K	359.8
298.15 K	360.2
299.15 K	360.6
301.15 K	361.5
303.15 K	362.4
305.15 K	363.3
307.15 K	364.2
309.15 K	365.1
311.15 K	366
313.15 K	366.9
315.15 K	367.9
317.15 K	368.8
319.15 K	369.8
321.15 K	370.8
323.15 K	371.8
325.15 K	372.8
327.15 K	373.8
329.15 K	374.8
331.15 K	375.8
333.15 K	376.9
335.15 K	377.9
337.15 K	379
339.15 K	380.1
